Source: patent publication US20070203206A1, “2-Pyrrolidone Derivatives And Use Thereof As Factor Xa Inhibitors” (priority 2003, published 2007)
Structures can show the parent of a compound that is named as a salt. Where two headings read alike, the source gives them in different places.

Target: T1, human Factor Xa (Homo sapiens, UniProt P00742)
T1 construct: containing human Factor Xa (final conc. Of 0.0003 U·ml-1)
Assay: In vitro fluorogenic assay for inhibition of Factor Xa
Assay type: biochemical
Method: In Vitro Assay for Inhibition of Factor Xa
Compounds of the present invention were tested for their Factor Xa inhibitory activity as determined in vitro by their ability to inhibit human Factor Xa in a fluorogenic assay, using Rhodamine 110, bis-CBZ-glycylglycyl-L-arginine amide as the fluorogenic substrate. Compounds were diluted from a 10 mM stock solution in dimethylsulfoxide at appropriate concentrations. Assay was performed at room temperature using buffer consisting of: 50 mM Tris-HCl, 150 mM NaCl, 5 mM CaCl2, pH 7.4. containing human Factor Xa (final conc. Of 0.0003 U·ml-1). Compound and enzyme were preincubated for 15 min prior to addition of the substrate (final conc. of 10 μM). The reaction was stopped after 3 hrs with the addition of H-D-Phe-Pro-Arg-Chloromethylketone. […] To obtain IC50 values the data were analysed using ActivityBase® and XLfit®.
Calculation of Ki values: Ki=IC50/(1+[Substrate]/Km)
The Ki value for the above assay can be obtained by dividing the IC50 value by 1.6.

[1] = human Factor Xa, Rhodamine 110 bis-CBZ-glycylglycyl-L-arginine amide substrate 10 μM, 15 min preincubation, room temperature, pH 7.4, Ki = IC50/1.6, read-out: Ki value

T1 sequence (P00742 235-488 limits assumed): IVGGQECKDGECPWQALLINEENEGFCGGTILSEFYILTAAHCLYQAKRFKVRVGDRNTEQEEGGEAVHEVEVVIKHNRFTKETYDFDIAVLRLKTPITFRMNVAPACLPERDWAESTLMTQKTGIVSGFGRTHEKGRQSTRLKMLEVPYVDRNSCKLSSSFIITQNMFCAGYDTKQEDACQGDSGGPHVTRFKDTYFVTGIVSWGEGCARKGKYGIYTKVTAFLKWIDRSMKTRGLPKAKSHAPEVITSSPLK
T1 sequence (P00742 41-179 partner limits assumed): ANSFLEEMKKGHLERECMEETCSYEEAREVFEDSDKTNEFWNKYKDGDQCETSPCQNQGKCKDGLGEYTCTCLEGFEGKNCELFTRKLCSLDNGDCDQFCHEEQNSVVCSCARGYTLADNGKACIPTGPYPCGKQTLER

Ki [1]	SMILES	Ki (Ki value)
< 1000 nM	CN(C)CCN(C)C(=O)c1ccc(N2CCC(NS(=O)(=O)c3cc4ccc(Cl)cc4s3)C2=O)c(F)c1 (centres unmarked) [Example 25, 4-(3-{[(6-Chloro-1-benzothien-2-yl)sulfonyl]amino}-2-oxo-1-pyrrolidinyl)-N-[2-(dimethylamino)ethyl]-3-fluoro-N-methylbenzamide formate]	
< 100 nM	CNCCN(C)C(=O)c1ccc(N2CCC(NS(=O)(=O)c3cc4ccc(Cl)cc4s3)C2=O)c(F)c1 (centres unmarked) [Example 26, 4-(3-{[(6-Chloro-1-benzothien-2-yl)sulfonyl]amino}-2-oxo-1-pyrrolidinyl)-3-fluoro-N-methyl-N-[2-(methylamino)ethyl]benzamide formate]	
< 1000 nM	O=C(NCc1cccnc1)c1ccc(N2CCC(NS(=O)(=O)/C=C/c3ccc(Cl)s3)C2=O)c(F)c1 (centres unmarked) [Example 9, 4-[3-({[(E)-2-(5-Chloro-2-thienyl)ethenyl]sulfonyl}amino)-2-oxo-1-pyrrolidinyl]-3-fluoro-N-(3-pyridinylmethyl)benzamide]	
< 1000 nM	CN(CCN)C(=O)c1ccc(N2CCC(NS(=O)(=O)c3cc4ccc(Cl)cc4s3)C2=O)c(F)c1 (centres unmarked) [Example 28]	
< 100 nM	CN(CCc1cccnc1)C(=O)c1ccc(N2CCC(NS(=O)(=O)c3cc4ccc(Cl)cc4s3)C2=O)c(F)c1 (centres unmarked) [Example 27, 4-(3-{[(6-Chloro-1-benzothien-2-yl)sulfonyl]amino}-2-oxo-1-pyrrolidinyl)-3-fluoro-N-methyl-N-[2-(3-pyridinyl)ethyl]benzamide]	

Second part, the molecule before the results:

SMILES	Ki [1]	Ki (Ki value)
C/C(=C\S(=O)(=O)NC1CCN(c2ccc(C(=O)N(C)CCO)cc2F)C1=O)c1ccc(Cl)s1 (centres unmarked) [Example 2, 4-[3-({[(1E)-2-(5-Chloro-2-thienyl)-1-propen-1-yl]sulfonyl}amino)-2-oxo-1-pyrrolidinyl]-3-fluoro-N-(2-hydroxyethyl)-N-methylbenzamide]	< 1000 nM	
C/C(=C\S(=O)(=O)NC1CCN(c2ccc(C(=O)N(C)CCc3c[nH]cn3)cc2F)C1=O)c1ccc(Cl)s1 (centres unmarked) [Example 31, 4-[3-({[(1E)-2-(5-Chloro-2-thienyl)-1-propen-1-yl]sulfonyl}amino)-2-oxo-1-pyrrolidinyl]-3-fluoro-N-[2-(1H-imidazol-4-yl)ethyl]-N-methylbenzamide]		< 100 nM
COCCN(C)C(=O)c1ccc(N2CCC(NS(=O)(=O)/C=C(\C)c3ccc(Cl)s3)C2=O)c(F)c1 (centres unmarked) [Example 5, 4-[3-({[(1E)-2-(5-Chloro-2-thienyl)-1-propen-1-yl]sulfonyl}amino)-2-oxo-1-pyrrolidinyl]-3-fluoro-N-methyl-N-[2-(methyloxy)ethyl]benzamide]		< 1000 nM
C/C(=C\S(=O)(=O)NC1CCN(c2ccc(C(=O)N(C)CCc3cccnc3)cc2F)C1=O)c1ccc(Cl)s1 (centres unmarked) [Example 30, 4-[3-({[(1E)-2-(5-Chloro-2-thienyl)-1-propen-1-yl]sulfonyl}amino)-2-oxo-1-pyrrolidinyl]-3-fluoro-N-methyl-N-[2-(3-pyridinyl)ethyl]benzamide]		< 100 nM
C/C(=C\S(=O)(=O)NC1CCN(c2ccc(C(=O)N(C)CCS(C)(=O)=O)cc2F)C1=O)c1ccc(Cl)s1 (centres unmarked) [Example 4, 4-[3-({[(1E)-2-(5-Chloro-2-thienyl)-1-propen-1-yl]sulfonyl}amino)-2-oxo-1-pyrrolidinyl]-3-fluoro-N-methyl-N-[2-(methylsulfonyl)ethyl]benzamide]	< 100 nM	
O=C(NCc1ccncc1)c1ccc(N2CCC(NS(=O)(=O)/C=C/c3ccc(Cl)s3)C2=O)c(F)c1 (centres unmarked) [Example 8, 4-[3-({[(E)-2-(5-Chloro-2-thienyl)ethenyl]sulfonyl}amino)-2-oxo-1-pyrrolidinyl]-3-fluoro-N-(4-pyridinylmethyl)benzamide]	< 1000 nM	
C/C(=C\S(=O)(=O)NC1CCN(c2ccc(C(=O)N(C)CCN(C)C)cc2F)C1=O)c1ccc(Cl)s1 (centres unmarked) [Example 29, 4-[3-({[(1E)-2-(5-chloro-2-thienyl)-1-propen-1-yl]sulfonyl}amino)-2-oxo-1-pyrrolidinyl]-N-[2-(dimethylamino)ethyl]-3-fluoro-N-methylbenzamide formate]	< 100 nM	
C/C(=C\S(=O)(=O)NC1CCN(c2ccc(C(=O)N(C)Cc3ccccn3)cc2F)C1=O)c1ccc(Cl)s1 (centres unmarked) [Example 3, 4-[3-({[(1E)-2-(5-Chloro-2-thienyl)-1-propen-1-yl]sulfonyl}amino)-2-oxo-1-pyrrolidinyl]-3-fluoro-N-methyl-N-(2-pyridinylmethyl)benzamide]		< 100 nM
CNCCN(C)C(=O)c1ccc(N2CCC(NS(=O)(=O)/C=C(\C)c3ccc(Cl)s3)C2=O)c(F)c1 (centres unmarked) [Example 1, 4-[3-({[(1E)-2-(5-Chloro-2-thienyl)-1-propen-1-yl]sulfonyl}amino)-2-oxo-1-pyrrolidinyl]-3-fluoro-N-methyl-N-[2-(methylamino)ethyl]benzamide]		< 100 nM
